The record followed here is patent US7425557B2, “Inhibitors of glycogen synthase kinase 3” (Novartis Vaccines and Diagnostics, Inc., priority 1998, dated 2008).

System in the first data set: not given
Experiment: not given
Details: not given
In general, melting point refers to the temperature, or range, at which the solid turns liquid. Turning to `O=[N+]([O-])c1ccc(NCCNc2nccc(-c3ccc(N4CCOCC4)cc3)n2)nc1` [[4-(4-morpholin-4-ylphenyl)-pyrimidin-2-yl]{2-[(5-nitro(2-pyridyl))amino]ethyl}amine], the melting point was 223 to 225 °C (dec.).

The target of another data set is human GSK3β (Homo sapiens, UniProt P49841). Put plainly: Screening for GSK3 inhibitory activity using a cell-free assay. The class given is biochemical. Particulars: read-out: IC50 with respect to GSK3. In outline: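 Compounds in DMSO were tested against human GSK3β over a three-hour kinase reaction. Radiolabeled phosphate transferred to the peptide was captured on streptavidin plates after EDTA/ATP stop and quantified by scintillation counting. Signal was plotted versus compound concentration.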
human GSK3β, sequence (P49841 whole entry): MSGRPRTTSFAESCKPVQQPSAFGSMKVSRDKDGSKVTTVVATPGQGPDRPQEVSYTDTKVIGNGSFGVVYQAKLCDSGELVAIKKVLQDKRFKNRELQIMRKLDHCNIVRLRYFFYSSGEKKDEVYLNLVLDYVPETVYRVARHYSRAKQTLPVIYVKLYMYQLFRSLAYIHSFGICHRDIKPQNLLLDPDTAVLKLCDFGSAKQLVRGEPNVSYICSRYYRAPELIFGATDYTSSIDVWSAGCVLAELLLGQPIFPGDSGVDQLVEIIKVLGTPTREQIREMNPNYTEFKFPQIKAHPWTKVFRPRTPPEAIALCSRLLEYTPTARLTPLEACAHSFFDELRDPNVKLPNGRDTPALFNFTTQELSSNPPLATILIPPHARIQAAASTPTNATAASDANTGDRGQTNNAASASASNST
Broadly, the IC50 is the concentration that inhibits the measured activity by half. Turning to `O=[N+]([O-])c1ccc(NCCNc2nccc(-c3ccc(N4CCOCC4)cc3)n2)nc1` [[4-(4-morpholin-4-ylphenyl)-pyrimidin-2-yl]{2-[(5-nitro(2-pyridyl))amino]ethyl}amine], the IC50 is ≤ 1 µM.
As for `Cc1cc(Cl)ccc1-c1nc(NCCNc2ccc([N+](=O)[O-])c(N)n2)ncc1-c1ncc[nH]1` [{2-[(6-amino-5-nitro(2-pyridyl))amino]ethyl}[4-(4-chloro-2-methylphenyl)-5-imidazol-2-ylpyrimidin-2-yl]amine], the IC50 is ≤ 1 µM.
Take `CCc1ccc(-c2nc(NCCNc3ccc([N+](=O)[O-])c(N)n3)ncc2-n2ccnc2)cc1` [{2-[(6-amino-5-nitro(2-pyridyl))amino]ethyl}[4-(4-ethylphenyl)-5-imidazolylpyrimidin-2-yl]amine]: the half-inhibitory concentration (IC50) was ≤ 1 µM.
In the case of `Cc1cn(-c2ccc(NCCNc3ccc([N+](=O)[O-])c(N)n3)nc2-c2ccc(Cl)cc2Cl)cn1` [{2-[(6-amino-5-nitro(2-pyridyl))amino]ethyl}[6-(2,4-dichlorophenyl)-5-(4-methylimidazolyl)(2-pyridyl)]amine], the IC50 is ≤ 1 µM.
`Nc1nc(NCCNc2ccc(-n3ccnc3)c(-c3ccc(Cl)cc3Cl)n2)ccc1[N+](=O)[O-]` [{2-[(6-amino-5-nitro(2-pyridyl))amino]ethyl}[6-(2,4-dichlorophenyl)-5-imidazolyl(2-pyridyl)]amine]: the IC50 is ≤ 1 µM.
For `Nc1nc(NCCNc2ccc([N+](=O)[O-])c(-c3ccc(Cl)cc3Cl)n2)ccc1[N+](=O)[O-]` [{2-[(6-amino-5-nitro(2-pyridyl))amino]ethyl}[6-(2,4-dichlorophenyl)-5-nitro(2-pyridyl)]amine], the IC50 was ≤ 1 µM.
Same read-out and setting: next, `Nc1nc(NCCNc2ncc(-n3nnnc3C(F)(F)F)c(-c3ccc(Cl)cc3Cl)n2)ccc1[N+](=O)[O-]` [{2-[(6-amino-5-nitro(2-pyridyl))amino]ethyl}{4-(2,4-dichlorophenyl)-5-[5-(trifluoromethyl)(1,2,3,4-tetraazolyl)]pyrimidin-2-yl}amine]: ≤ 1 µM; `N#Cc1cnc(NCCNc2nccc(-c3ccc(C(=O)NCc4cccc(Br)c4)cc3)n2)nc1N` [{4-[2-({2-[(4-amino-5-cyanopyrimidin-2-yl)amino]ethyl}amino)pyrimidin-4-yl]phenyl}-N-[(3-bromophenyl)methyl]carboxamide]: ≤ 1 µM; `NS(=O)(=O)c1ccc(CNC(=O)c2ccc(-c3ccnc(NCCNc4ccc([N+](=O)[O-])cn4)n3)cc2)cc1` [{4-[2-({2-[(5-nitro(2-pyridyl))-amino]ethyl}amino)pyrimidin-4-yl]phenyl}-N-[(4-sulfamoylphenyl)methyl]carboxamide]: ≤ 10 µM.
For `O=C(NCCc1ccccc1)c1ccc(-c2ccnc(NCCNc3ccc([N+](=O)[O-])cn3)n2)cc1` [{4-[2-({2-[(5-nitro(2-pyridyl))amino]ethyl}amino)-pyrimidin-4-yl]phenyl}-N-(2-phenylethyl)carboxamide], the IC50 is ≤ 10 µM.
Regarding `O=C(NCc1cccs1)c1ccc(-c2ccnc(NCCNc3ccc([N+](=O)[O-])cn3)n2)cc1` [{4-[2-({2-[(5-nitro(2-pyridyl))amino]ethyl}amino)-pyrimidin-4-yl]phenyl}-N-(2-thienylmethyl)carboxamide], the 50% inhibitory concentration (IC50) was ≤ 10 µM.
Consider `O=C(NC1CC1c1ccccc1)c1ccc(-c2ccnc(NCCNc3ccc([N+](=O)[O-])cn3)n2)cc1` (stereo not drawn) [{4-[2-({2-[(5-nitro(2-pyridyl))amino]ethyl}amino)pyrimidin-4-yl]phenyl}-N-(2-phenylcyclopropyl)-carboxamide], for which the half-maximal inhibitory concentration (IC50) was ≤ 10 µM.
Same read-out and setting: next, `O=C(NCc1cccnc1)c1ccc(-c2ccnc(NCCNc3ccc([N+](=O)[O-])cn3)n2)cc1` [{4-[2-({2-[(5-nitro(2-pyridyl))amino]ethyl}amino)pyrimidin-4-yl]phenyl}-N-(3-pyridylmethyl)carboxamide]: ≤ 10 µM; `O=C(NCC1CCNCC1)c1ccc(-c2ccnc(NCCNc3ccc([N+](=O)[O-])cn3)n2)cc1` [{4-[2-({2-[(5-nitro(2-pyridyl))amino]ethyl}amino)pyrimidin-4-yl]phenyl}-N-(4-piperidylmethyl)carboxamide]: ≤ 10 µM; `O=C(NCC1CCCO1)c1ccc(-c2ccnc(NCCNc3ccc([N+](=O)[O-])cn3)n2)cc1` (stereo not drawn) [{4-[2-({2-[(5-nitro(2-pyridyl))amino]ethyl}amino)pyrimidin-4-yl]phenyl}-N-(oxolan-2-ylmethyl)carboxamide]: ≤ 10 µM.
Regarding `O=C(NCc1cccc([N+](=O)[O-])c1)c1ccc(-c2ccnc(NCCNc3ccc([N+](=O)[O-])cn3)n2)cc1` [{4-[2-({2-[(5-nitro(2-pyridyl))amino]ethyl}amino)pyrimidin-4-yl]phenyl}-N-[(3-nitrophenyl)-methyl]carboxamide], the IC50 was ≤ 10 µM.
As for `O=C(NCc1ccccc1)c1ccc(-c2ccnc(NCCNc3ccc([N+](=O)[O-])cn3)n2)cc1` [{4-[2-({2-[(5-nitro(2-pyridyl))amino]ethyl}amino)pyrimidin-4-yl]phenyl}-N-benzylcarboxamide], the IC50 was ≤ 10 µM.
As to `O=C(NCc1cccc(C(F)(F)F)c1)c1ccc(-c2ccnc(NCCNc3ccc([N+](=O)[O-])cn3)n2)cc1` [{4-[2-({2-[(5-nitro(2-pyridyl))amino]ethyl}amino)pyrimidin-4-yl]phenyl}-N-{[3-(trifluoromethyl)phenyl]methyl}carboxamide], the IC50 is ≤ 10 µM.
Consider `Nc1nc(NCCNc2nccc(-c3ccc(C(=O)NCc4cccc(Br)c4)cc3)n2)ccc1[N+](=O)[O-]` [{4-[2-({2-[(6-amino-5-nitro(2-pyridyl))amino]ethyl}amino)pyrimidin-4-yl]phenyl}-N-[(3-bromophenyl)methyl]-carboxamide], for which the concentration for half-maximal inhibition (IC50) was ≤ 10 µM.
On to `Nc1nc(NCCNc2nccc(-c3ccc(C(=O)NCc4ccccc4)cc3)n2)ccc1[N+](=O)[O-]` [{4-[2-({2-[(6-amino-5-nitro(2-pyridyl))amino]ethyl}amino)pyrimidin-4-yl]phenyl}-N-benzylcarboxamide], for which the IC50 is ≤ 10 µM.
Turning to `O=[N+]([O-])c1ccc(NCCNc2nccc(-c3ccc(-c4nc(Cl)c(Cl)[nH]4)cc3)n2)nc1` [{4-[4-(4,5-dichloroimidazol-2-yl)phenyl]-pyrimidin-2-yl}{2-[(5-nitro(2-pyridyl))amino]ethyl}amine], the IC50 is ≤ 10 µM.
Consider `O=[N+]([O-])c1ccc(NCCNc2ncc(-c3ncc[nH]3)c(-c3ccc(C(F)(F)F)cc3)n2)nc1` [{5-imidazol-2-yl-4-[4-(trifluoromethyl)phenyl]pyrimidin-2-yl}{2-[(5-nitro(2-pyridyl))amino]ethyl}amine], for which the IC50 is ≤ 1 µM.
Turning to `COCCNc1nc(NCCNc2ccc([N+](=O)[O-])cn2)ccc1[N+](=O)[O-]` [{6-[(2-methoxyethyl)amino]-5-nitro(2-pyridyl)}{2-[(5-nitro(2-pyridyl))amino]ethyl}amine], the half-inhibitory concentration (IC50) was ≤ 10 µM.
